Source: ChEMBL document CHEMBL5352388 (Eur J Med Chem, 2022)
The source made the active and inactive calls. The rule behind the calls is not given here.

Tests used:
[1] = Intrinsic clearance in human liver measured upto 60 mins in presence of NADPH by LC/MS/MS analysis; format: ADME, tissue-based; conditions: read-out: CLH
CYP1A2 = molecular target: T1, CYP1A2 (Homo sapiens, UniProt P05177); assay: Inhibition of CYP1A2 (unknown origin) at 10 uM incubated for 20 mins in presence of NADPH by LC/MS/MS analysis relative to control; format: ADME
T1 sequence (P05177 whole entry): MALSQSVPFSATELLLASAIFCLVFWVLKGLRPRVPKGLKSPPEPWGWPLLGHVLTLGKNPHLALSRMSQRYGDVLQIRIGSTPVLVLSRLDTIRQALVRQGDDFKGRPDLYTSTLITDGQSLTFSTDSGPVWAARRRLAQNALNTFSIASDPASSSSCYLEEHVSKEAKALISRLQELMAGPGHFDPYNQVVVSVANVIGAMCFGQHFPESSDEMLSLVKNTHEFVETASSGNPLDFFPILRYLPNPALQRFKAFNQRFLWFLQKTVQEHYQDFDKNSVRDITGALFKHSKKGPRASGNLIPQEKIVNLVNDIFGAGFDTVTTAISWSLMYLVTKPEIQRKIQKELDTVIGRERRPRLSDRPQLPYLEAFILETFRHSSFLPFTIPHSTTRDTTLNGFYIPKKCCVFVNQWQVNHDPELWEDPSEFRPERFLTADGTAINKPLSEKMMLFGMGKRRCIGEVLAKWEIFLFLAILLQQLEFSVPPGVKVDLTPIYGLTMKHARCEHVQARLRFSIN

CYP3A4 = CYP3A4 (Homo sapiens, UniProt P08684); assay: Inhibition of CYP3A4 (unknown origin) at 10 uM incubated for 20 mins in presence of NADPH by LC/MS/MS analysis relative to control; format: ADME
Sequence of CYP3A4 (P08684 whole entry): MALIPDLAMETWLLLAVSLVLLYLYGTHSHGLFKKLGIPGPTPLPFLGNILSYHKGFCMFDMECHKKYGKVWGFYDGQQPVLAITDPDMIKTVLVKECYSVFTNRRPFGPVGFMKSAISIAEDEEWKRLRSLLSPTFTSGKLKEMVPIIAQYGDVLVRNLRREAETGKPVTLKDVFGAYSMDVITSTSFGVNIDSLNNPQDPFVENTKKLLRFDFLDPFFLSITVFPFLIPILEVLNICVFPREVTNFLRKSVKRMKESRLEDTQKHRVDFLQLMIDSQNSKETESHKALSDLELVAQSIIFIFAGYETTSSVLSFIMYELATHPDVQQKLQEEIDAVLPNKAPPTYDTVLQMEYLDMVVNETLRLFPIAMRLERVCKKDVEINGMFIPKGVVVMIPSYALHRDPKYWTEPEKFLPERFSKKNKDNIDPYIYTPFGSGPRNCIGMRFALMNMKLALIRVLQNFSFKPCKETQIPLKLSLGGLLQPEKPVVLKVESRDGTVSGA

[2] = Tmax in Sprague-Dawley rat at 10 mg/kg,po by LC-MS/MS analysis; format: ADME, organism-based; conditions: in vivo
[3] = Oral bioavailability in Sprague-Dawley rat at 10 mg/kg by LC-MS/MS analysis; format: ADME, organism-based; conditions: in vivo
[4] = Volume of distribution in steady state in Sprague-Dawley rat at 3 mg/kg,iv by LC-MS/MS analysis; format: ADME, organism-based; conditions: in vivo, read-out: Vdss
[5] = AUC (0-t) in Sprague-Dawley rat at 3 mg/kg,iv by LC-MS/MS analysis; format: ADME, organism-based; design: dose 3 mg/kg, route iv; conditions: in vivo
[6] = molecular target: T2, Lysine-specific histone demethylase 1A (Homo sapiens, UniProt O60341); assay: Inhibition of LSD1 in human A549 cells assessed as increase in H3K4me1 protein level at 1 to 4 uM incubated for 72 hrs by Western blotting assay; format: cell-based; conditions: dose 1-4 µM
[7] = molecular target: T2, Lysine-specific histone demethylase 1A; assay: Inhibition of LSD1 in human A549 cells assessed as increase in H3K9me1 protein level at 1 to 4 uM incubated for 72 hrs by Western blotting assay; format: cell-based; conditions: dose 1-4 µM
[8] = molecular target: T2, Lysine-specific histone demethylase 1A; assay: Inhibition of LSD1 in human A549 cells assessed as increase in H3K9me2 protein level at 1 to 4 uM incubated for 72 hrs by Western blotting assay; format: cell-based; conditions: dose 1-4 µM
[9] = molecular target: T2, Lysine-specific histone demethylase 1A; assay: Binding affinity to LSD1 in human A549 cells assessed as increase in thermal stability at 10 uM incubated for 1 hr by cellular thermal shift assay; format: cell-based
A549 [10] = assay: Induction of apoptosis in human A549 cells at 4 uM incubated for 48 hrs by Annexin V-FITC/PI staining based flow cytometry method; format: functional
[11] = Toxicity in BALB/c mouse xenografted with human A549 cells assessed as change in body weight at 10 mg/kg,ip administrated for 15 days; format: organism-based; conditions: in vivo, 360 h, time 15 day
A549 [12] = assay: Antitumor activity against human A549 cells xenografted in BALB/c mouse assessed as decrease in tumor cell density at 20 mg/kg,ip administrated for 15 days; format: functional, organism-based; conditions: time 15.0 day
A549 [13] = assay: Antitumor activity against human A549 cells xenografted in BALB/c mouse assessed as chromatin condensation at 20 mg/kg,ip administrated for 15 days; format: functional, organism-based; conditions: time 15.0 day
A549 [14] = assay: Antitumor activity against human A549 cells xenografted in BALB/c mouse assessed as decrease in tumor cell density at 10 mg/kg,ip administrated for 15 days; format: functional, organism-based; conditions: time 15.0 day
A549 [15] = assay: Induction of apoptosis in human A549 cells assessed as downregulation of AKT phosphorylation incubated for 72 hrs by Western blotting assay; format: functional, cell-based
[16] = molecular target: T3, Amine oxidase [flavin-containing] A (Homo sapiens, UniProt P21397)
T3 sequence (P21397 whole entry): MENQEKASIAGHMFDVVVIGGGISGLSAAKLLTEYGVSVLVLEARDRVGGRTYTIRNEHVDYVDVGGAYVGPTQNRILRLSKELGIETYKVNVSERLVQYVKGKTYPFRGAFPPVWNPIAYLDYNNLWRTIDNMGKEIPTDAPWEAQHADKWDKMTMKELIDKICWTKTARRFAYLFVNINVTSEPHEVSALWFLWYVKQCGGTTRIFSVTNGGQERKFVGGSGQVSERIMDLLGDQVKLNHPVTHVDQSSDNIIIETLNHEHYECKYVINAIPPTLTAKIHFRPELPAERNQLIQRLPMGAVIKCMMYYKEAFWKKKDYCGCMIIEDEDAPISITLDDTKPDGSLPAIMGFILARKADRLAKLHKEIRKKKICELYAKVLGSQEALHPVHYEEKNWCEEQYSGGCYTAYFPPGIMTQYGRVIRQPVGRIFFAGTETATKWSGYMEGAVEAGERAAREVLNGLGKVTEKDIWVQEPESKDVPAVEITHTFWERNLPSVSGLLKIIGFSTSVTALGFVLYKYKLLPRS
Description: Inhibition of recombinant MAO-A (unknown origin) incubated for 60 mins by luminescence based flow cytometry

[17] = molecular target: T4, Amine oxidase [flavin-containing] B (Homo sapiens, UniProt P27338)
T4 sequence (P27338 whole entry): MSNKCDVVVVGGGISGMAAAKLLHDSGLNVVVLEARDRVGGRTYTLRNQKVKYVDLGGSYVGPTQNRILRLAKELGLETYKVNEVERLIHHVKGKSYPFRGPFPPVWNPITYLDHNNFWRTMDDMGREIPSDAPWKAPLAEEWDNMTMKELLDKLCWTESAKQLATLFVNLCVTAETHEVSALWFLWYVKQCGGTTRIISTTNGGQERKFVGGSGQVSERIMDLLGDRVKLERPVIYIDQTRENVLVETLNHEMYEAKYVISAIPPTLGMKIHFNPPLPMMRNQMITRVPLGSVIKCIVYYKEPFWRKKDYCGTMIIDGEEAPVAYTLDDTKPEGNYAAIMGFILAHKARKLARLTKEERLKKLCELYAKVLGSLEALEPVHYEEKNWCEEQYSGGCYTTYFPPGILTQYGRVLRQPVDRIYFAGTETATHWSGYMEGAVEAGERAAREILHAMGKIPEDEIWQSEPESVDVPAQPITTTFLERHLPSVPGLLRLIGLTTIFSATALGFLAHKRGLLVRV
Description: Inhibition of recombinant MAO-B (unknown origin) incubated for 60 mins by luminescence based flow cytometry

NCI-H460 = assay: cells; conditions: Homo sapiens, NCI-H460, 72 h
Description: Antiproliferative activity against human NCI-H460 cells assessed as inhibition of cell growth incubated for 72 hrs by CCK-8 assay

MGC-803 = assay: cells; conditions: Homo sapiens, MGC-803, 72 h
Description: Antiproliferative activity against human MGC-803 cells assessed as inhibition of cell growth incubated for 72 hrs by CCK-8 assay

in vitro = conditions: human, THLE-2 cells
Description: Antiproliferative activity against human THLE-2 cells assessed as inhibition of cell growth incubated for 72 hrs by CCK-8 assay

CLint scaled [1]: 8.6 mL/min/kg | inhibition at 20 min, 10 µM (CYP1A2): 0% | inhibition at 20 min, 10 µM (CYP3A4): 56.8% | Tmax [2]: 4 h | bioavailability [3]: 7.49% | Vd [4]: 17.4 L/kg | AUC(0-t) [5]: 1320 ng·h/mL | inhibition [6]: Dose-Dependent Effect | inhibition [7]: Dose-Dependent Effect | inhibition [8]: Dose-Dependent Effect | Activity [9]: Active | IC50 [16]: 2.04 µM | IC50 [17]: 0.72 µM | IC50 (NCI-H460): 3.8 µM | IC50 (MGC-803): 5.8 µM | IC50 at 72 h (in vitro): 3.1 µM
SMILES: Cc1ccc(-c2cc3c(cc2-c2ccc(C#N)cc2)c(C(=O)N2CCC(N)CC2)cn3S(=O)(=O)c2ccc(F)cc2)cc1
Activity (A549 [10]): 52.5% | Activity [11]: Non-Toxic | Activity (A549 [12]): Active | Activity (A549 [13]): Active | Activity (A549 [14]): Active | Activity (A549 [15]): Active
